# From the supplement of paper PMC6045584
# ± gives the standard deviation of the averaged measurements.
# Compound: NC1(c2ccc(-c3nc4ccn5c(=O)[nH]nc5c4cc3-c3ccccc3)cc2)CCC1 [MK2206]
# Test: surviving fraction relative to DMSO-only wells; higher = less growth inhibition
# Conditions: 50 nM; exposure time: 5 days
# In short: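 Lines were retained only if, across three screens, replicate Pearson r was >0.7 and median Z' was >0.3. Viability was measured as CellTiter-Glo luminescence and reported as surviving fraction relative to the median of DMSO-only wells. Readings followed 10 minutes at room temperature, after log-phase tumour cells seeded at 250–500 per well in 384-well plates had been exposed, from 24 hours after seeding, continuously for five days to inhibitors at 0.5, 1, 5, 10, 50, 100, 500 and 1000 nM.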
row,Test System,surviving fraction
1,MDAMB361 BREAST,0.768 ± 0.11
2,MDAMB436 BREAST,0.928 ± 0.023
3,MDAMB453 BREAST,1.12 ± 0.072
4,MDAMB468 BREAST,0.966 ± 0.06
5,MFM223 BREAST,0.793 ± 0.077
6,MG63 BONE,0.95 ± 0.016
7,MHM BONE,0.963 ± 0.035
8,NCIH441 LUNG,1.01 ± 0.059
9,NOS1 BONE,0.807 ± 0.14
10,NY BONE,0.96 ± 0.047
11,OS25HAL BONE,0.813 ± 0.066
12,OSHN BONE,1.05 ± 0.046
13,PCI30 HEADNECK,0.939 ± 0.039
14,RDES SOFT TISSUE,1.06 ± 0.062
15,S68 BREAST,0.974 ± 0.22
16,SAOS2 BONE,0.965 ± 0.063
17,SCC36 HEADNECK,0.892 ± 0.025
18,SCC47 HEADNECK,1.04 ± 0.046
19,SCC90 HEADNECK,0.887 ± 0.011
20,SG27 HEADNECK,0.843 ± 0.18

row,Test System,surviving fraction
1,SG28 HEADNECK,0.864 ± 0.061
2,SG31 HEADNECK,0.945 ± 0.16
3,SG32 HEADNECK,1.51 ± 0.17
4,SG43 HEADNECK,0.653 ± 0.19
5,SIHA CERVIX,0.8803 ± 0.0068
6,SJSA1 BONE,1.66 ± 0.096
7,SKBR3 BREAST,0.724 ± 0.067
8,SNU475 LIVER,0.9 ± 0.024
9,SUM44 BREAST,0.993 ± 0.051
10,SUM149 BREAST,0.937 ± 0.036
11,SUM149.B1*.S BREAST,1.05 ± 0.058
12,SUM159 BREAST,1.06 ± 0.015
13,SYO1 SYNOVIAL,0.905 ± 0.032
14,T47D BREAST,0.755 ± 0.032
15,U2OS BONE,0.991 ± 0.015
16,VCAP PROSTATE,0.834 ± 0.13
17,VP229 BREAST,1.07 ± 0.14
18,YAMATO SYNOVIAL,0.84 ± 0.022
19,ZR751 BREAST,0.407 ± 0.024

# Same assay, conditions: 100 nM; exposure time: 5 days
row,Test System,surviving fraction
1,MDAMB361 BREAST,0.608 ± 0.019
2,MDAMB436 BREAST,0.924 ± 0.11
3,MDAMB453 BREAST,0.846 ± 0.013
4,MDAMB468 BREAST,0.939 ± 0.073
5,MFM223 BREAST,0.661 ± 0.087
6,MG63 BONE,0.961 ± 0.03
7,MHM BONE,0.959 ± 0.026
8,NCIH441 LUNG,1.07 ± 0.041
9,NOS1 BONE,0.734 ± 0.011
10,NY BONE,0.954 ± 0.023
11,OS25HAL BONE,0.631 ± 0.085
12,OSHN BONE,1.09 ± 0.038
13,PCI30 HEADNECK,0.874 ± 0.045
14,RDES SOFT TISSUE,1.17 ± 0.1
15,S68 BREAST,0.619 ± 0.088
16,SAOS2 BONE,0.925 ± 0.041
17,SCC36 HEADNECK,0.936 ± 0.034
18,SCC47 HEADNECK,1.07 ± 0.052
19,SCC90 HEADNECK,0.935 ± 0.082
20,SG27 HEADNECK,0.949 ± 0.12

row,Test System,surviving fraction
1,SG28 HEADNECK,0.852 ± 0.1
2,SG31 HEADNECK,0.916 ± 0.2
3,SG32 HEADNECK,1.08 ± 0.13
4,SG43 HEADNECK,0.505 ± 0.073
5,SIHA CERVIX,0.876 ± 0.031
6,SJSA1 BONE,1.7 ± 0.048
7,SKBR3 BREAST,0.581 ± 0.028
8,SNU475 LIVER,0.891 ± 0.018
9,SUM44 BREAST,1.13 ± 0.21
10,SUM149 BREAST,0.953 ± 0.029
11,SUM149.B1*.S BREAST,1.07 ± 0.045
12,SUM159 BREAST,1.08 ± 0.02
13,SYO1 SYNOVIAL,0.885 ± 0.066
14,T47D BREAST,0.654 ± 0.042
15,U2OS BONE,0.941 ± 0.035
16,VCAP PROSTATE,0.754 ± 0.093
17,VP229 BREAST,0.909 ± 0.18
18,YAMATO SYNOVIAL,0.708 ± 0.036
19,ZR751 BREAST,0.424 ± 0.027

# Same assay, conditions: 500 nM; exposure time: 5 days
row,Test System,surviving fraction
1,MDAMB361 BREAST,0.353 ± 0.024
2,MDAMB436 BREAST,0.828 ± 0.14
3,MDAMB453 BREAST,0.327 ± 0.054
4,MDAMB468 BREAST,0.666 ± 0.0078
5,MFM223 BREAST,0.314 ± 0.053
6,MG63 BONE,0.793 ± 0.019
7,MHM BONE,0.89 ± 0.04
8,NCIH441 LUNG,1.04 ± 0.073
9,NOS1 BONE,0.503 ± 0.038
10,NY BONE,0.882 ± 0.014
11,OS25HAL BONE,0.301 ± 0.035
12,OSHN BONE,1.04 ± 0.051
13,PCI30 HEADNECK,0.592 ± 0.033
14,RDES SOFT TISSUE,1.2 ± 0.066
15,S68 BREAST,0.229 ± 0.028
16,SAOS2 BONE,0.676 ± 0.019
17,SCC36 HEADNECK,0.504 ± 0.044
18,SCC47 HEADNECK,0.935 ± 0.091
19,SCC90 HEADNECK,0.704 ± 0.071
20,SG27 HEADNECK,0.948 ± 0.043

row,Test System,surviving fraction
1,SG28 HEADNECK,0.634 ± 0.0078
2,SG31 HEADNECK,0.901 ± 0.13
3,SG32 HEADNECK,0.964 ± 0.073
4,SG43 HEADNECK,0.465 ± 0.17
5,SIHA CERVIX,0.731 ± 0.013
6,SJSA1 BONE,1.66 ± 0.13
7,SKBR3 BREAST,0.368 ± 0.02
8,SNU475 LIVER,0.767 ± 0.03
9,SUM44 BREAST,1.02 ± 0.18
10,SUM149 BREAST,0.932 ± 0.082
11,SUM149.B1*.S BREAST,0.998 ± 0.056
12,SUM159 BREAST,1.09 ± 0.029
13,SYO1 SYNOVIAL,0.748 ± 0.051
14,T47D BREAST,0.482 ± 0.021
15,U2OS BONE,0.815 ± 0.0053
16,VCAP PROSTATE,0.507 ± 0.066
17,VP229 BREAST,0.713 ± 0.055
18,YAMATO SYNOVIAL,0.521 ± 0.01
19,ZR751 BREAST,0.308 ± 0.029

# Same assay, conditions: 1000 nM; exposure time: 5 days
row,Test System,surviving fraction
1,MDAMB361 BREAST,0.34 ± 0.026
2,MDAMB436 BREAST,0.734 ± 0.088
3,MDAMB453 BREAST,0.266 ± 0.019
4,MDAMB468 BREAST,0.595 ± 0.014
5,MFM223 BREAST,0.224 ± 0.011
6,MG63 BONE,0.748 ± 0.017
7,MHM BONE,0.8973 ± 0.0085
8,NCIH441 LUNG,0.994 ± 0.028
9,NOS1 BONE,0.454 ± 0.053
10,NY BONE,0.853 ± 0.017
11,OS25HAL BONE,0.278 ± 0.021
12,OSHN BONE,1.09 ± 0.086
13,PCI30 HEADNECK,0.483 ± 0.017
14,RDES SOFT TISSUE,1.104 ± 0.0067
15,S68 BREAST,0.156 ± 0.044
16,SAOS2 BONE,0.654 ± 0.038
17,SCC36 HEADNECK,0.378 ± 0.032
18,SCC47 HEADNECK,0.828 ± 0.045
19,SCC90 HEADNECK,0.586 ± 0.047
20,SG27 HEADNECK,0.932 ± 0.042

row,Test System,surviving fraction
1,SG28 HEADNECK,0.719 ± 0.059
2,SG31 HEADNECK,0.88 ± 0.12
3,SG32 HEADNECK,0.83 ± 0.1
4,SG43 HEADNECK,0.317 ± 0.089
5,SIHA CERVIX,0.719 ± 0.021
6,SJSA1 BONE,1.71 ± 0.15
7,SKBR3 BREAST,0.337 ± 0.015
8,SNU475 LIVER,0.653 ± 0.1
9,SUM44 BREAST,1.09 ± 0.34
10,SUM149 BREAST,0.872 ± 0.055
11,SUM149.B1*.S BREAST,1.06 ± 0.036
12,SUM159 BREAST,1.08 ± 0.018
13,SYO1 SYNOVIAL,0.702 ± 0.036
14,T47D BREAST,0.449 ± 0.027
15,U2OS BONE,0.731 ± 0.055
16,VCAP PROSTATE,0.362 ± 0.017
17,VP229 BREAST,0.658 ± 0.12
18,YAMATO SYNOVIAL,0.482 ± 0.027
19,ZR751 BREAST,0.317 ± 0.029
